Reference: patent publication EP0443899A1, “Process for synthetising oligomers of (methylbenzyl)xylene and their use as dielectric” (ELF ATOCHEM S.A., priority 1990, dated 1991)

Experiments:
Assay type in all cases: physicochemical
[1] = Breakdown voltage, alternating current 50 Hz, method 2 (ramp 1000 V/30 s, asymmetric point/disc electrodes); parameters: unit not given here; settings: 50 Hz AC, 1000V every 30 s, point ø 0,6, disc ø 39,6, mean (extreme values)
Text: (§1) Nous avons comparé différents liquides par la mesure de leur tension de claquage en courant alternatif 50 Hz dans les 2 conditions suivantes (méthodes 1 et 2) : • 1 - rampe 2000 V/s - électrodes dissymétriques. • pointe diamètre 0,6 mm • disque à bords arrondis Rogowski, diamètre 39,6 mm • distance interélectrode = 3,2 mm • 2 - rampe 1000 V/30s - électrodes dissymétriques • pointe diamètre 0,6 mm • disque diamètre 39,6 mm • distance 3,2-10-15-20 mm

[2] = Crystallisation of the dielectric liquids at low temperature and on storage; settings: for cristallise: general description, products prepared from orthoxylene
Text: Cristallisation du produit XXO1 de l'exemple 1, du produit XX02 de l'exemple 1, et d'un mélange de 85 % en poids de XXO1 et 15 % en poids de XX02 (voir exemple 1) qu'on appelle XX05.
On effectue les mêmes essais que dans l'exemple 3 mais avec des produits XX01 et XX02 préparés comme dans l'exemple 1 sauf qu'on utilise un mélange de 75 % d'orthoxylène et 25 % de paraxylène ou bien de 100 % d'orthoxylène.

[3] = Breakdown voltage, alternating current 50 Hz, method 1 (ramp 2000 V/s, asymmetric point/disc electrodes); settings: 50 Hz AC, point ø 0,6 mm, disc ø 39,6 mm, inter-electrode distance 3,2 mm, mean (extreme values)
Text: as §1

| tension de claquage ([1]; inter-electrode distance 3,2 mm) | tension de claquage ([1]; inter-electrode distance 10 mm) | tension de claquage ([1]; inter-electrode distance 15 mm) | tension de claquage ([1]; inter-electrode distance 20 mm) | Cristallisation ([2]; Example 3, products of Example 1 (from orthoxylene)) [°C] | cristallise [2] | tension de claquage [3] | Substance |
| --- | --- | --- | --- | --- | --- | --- | --- |
| 41,2 (37,7-45,3) (5) | 69,5 (65,3-75,8) (5) | 82,4 (74-89) (5) | 93,8 (90,0-105,0) (5) | -40 | -40 °C |  | (méthylbenzyl)xylène [XX01] |
|  |  |  |  |  | solide à la température ambiante |  | di(méthylbenzyl)xylène |
|  |  |  |  |  |  | 39,0 (34,9-44,4) (10) | dodécylbenzène ramifié [DDB] |
